Source: US20250154112A1, “A PREPARATION OF QUINAZOLINEDIONES AND USE THEREOF” (COUNCIL OF SCIENTIFIC AND INDUSTRIAL RESEARCH AN INDIAN …, priority 2021, published 2025)
Converted amounts (≈) assume the structure as drawn.

Tests used:
[1] = system: ubiquitination of ATGL by COP1; assay: Immunoprecipitation assay of ATGL ubiquitination status in HepG2 cells; format: cell-based; conditions: HepG2 cells overexpressing myc-ATGL, HA-Ubiquitin, 5 μM, MG-132, compared with control
Description: To this end, an immunoprecipitation assay was performed wherein HepG2 cells overexpressing myc-ATGL were transfected with HA-Ubiquitin and treated with 5 μM of the compounds 5, 62, and 94.MG-132, a proteasomal inhibitor, was added4 hours before harvesting the cells. Immune complexes were pulled down with anti-myc antibody and immunoblot was done using anti-HA antibody. The resultant smears on the blot reflect the ubiquitination status of ATGL.

[2] = Metabolic stability using human liver microsomes (HLM); format: in vitro ADME
Description: 1 mM stock solution of test compound was prepared in DMSO and diluted with Acetonitrile:Water (1:1) to get a 100 μM working concentration. 100 mL of Milli Q water was added to K2HPO4 (1.398 g) and KH2PO4 (0.27 g) to get final pH 7.4 solution of potassium phosphate buffer. […] The above mixture was pre incubated for 15 minutes at 37° C. After pre incubation, 32.5 μL of the mixture was added to 17.5 μL of buffer, this was incubated for 60 minutes at 37° C. [60 min Without Cofactor (NADPH)]. 16.25 μL of the pre incubated mixture and 8.75 μL of cofactor was added to 150 μL of acetonitrile containing internal standard [0 min Sample]. 62 μL of cofactor was added to remaining pre incubation mixture [Incubation mixture]. 25 μL of incubation mixture at 0, 5, 15, 30, 60 min and 60 min without cofactor were precipitated with 150 μL of acetonitrile containing internal standard, vortexed and centrifuged at 4000 rpm at 4° C. for 20 minutes. 120 μL of supernatant was diluted with 120 μL of water and analyzed by LC-MS/MS [sample preparation].

ATGL [3] = assay: Western blot of ATGL level in HepG2 cells after compound treatment; format: cell-based; conditions: 24 hours; for ATGL level (Western Blot): 50 nM to 5 μM dose dependent, with respect to control; for induction of ATGL (Western Blot): 5 μM
Description: (§1) HepG2 cells were treated with the compounds 5, 8, 11, 59, 62, 91, 94 (50 nM, 100 nM, 200 nM, 500 nM, 1 μM and 5 μM for dose dependent assays) for 24 hours. After removing media from the cells, the wells were washed with 1×PBS twice to remove any remnant media. Cells were then lysed in lysis buffer containing 50 mM Tris-HCl (pH 7.4), 100 mM NaCl, 1 mM EDTA, 1 mM EGTA, 1% Triton X-100 and protease inhibitor cocktail (Millipore, Billierica, MA, USA). Following centrifugation at 20,000 g for 20 minutes, the protein solution was extracted from the cells. Protein was estimated using Bradford assay. Bradford's reagent (BioRad) was diluted in 1:4 ratio in double distilled water. 2 μl of protein sample was added to 100 μl of the reagent and absorbance was measured at 595 nm. 30 μg of protein was diluted in lysis buffer. 1X loading buffer diluted from 5X stock containing 250 mM Tris-HCl (pH 6.8), 10% SDS, 50% glycerol, 0.1% bromophenol Blue and 10% β-mercaptoethanol was added. The protein samples were then heated at 95° C. for 10 minutes, cooled and centrifuged at 12,000 g for 2 minutes prior to loading.
(§2) For western blotting, the proteins were resolved in 10% SDS PAGE (discontinuous buffer system). 1X running buffer containing SDS, Tris Base and Glycine was used to run the gel at 80V for approximately 2 hours. Transfer was done using PVDF membrane (Millipore) having pore size of 0.45 μm. 1X transfer buffer containing Tris-Base, Glycine and 20% methanol was used for wet transfer. Transfer was done at 90V for 3 hours. Following transfer, the PVDF membrane containing the proteins were washed in 1×PBST comprising of 1×PBS and 1% Tween 20 (Sigma Aldrich). The membrane was then incubated for 1 hour at room temperature in 5% skim milk powder to block the non-specific sites. Following multiple washes with 1×PBST to wash away any remaining blocking buffer, the required primary antibody (COP1 [BethylLaboraties], ATGL [Cell Signalling Technology] or Actin[Cell Signalling Technology]) prepared with 1×PBST, 1% Bovine Serum Albumin and 0.04% Sodium Azide was added to the membrane and incubated overnight at 4° C. The next day, the membrane was again washed multiple times with 1×PBST to remove any unbound primary antibody. The membrane was then incubated with goat anti-rabbit secondary antibody (Genei) for 1 hour at room temperature and washed again for multiple times with 1×PBST. The membrane was then developed using Clarity™ ECL Western Blotting Substrate (BioRad) and viewed in ChemiDoc (BioRad).
as §1, with “62, 65,” for “62,”, “at” for “(50 nM, 100 nM, 200 nM, 500 nM, 1 μM and”, “μM” for “μM for dose dependent assays)”, “cocktail 1” for “cocktail”

COP1 = target: T1, COP1 (Homo sapiens, UniProt Q8NHY2); assay: Western blot of COP1 level in HepG2 cells after compound treatment; format: cell-based; conditions: 5 μM, 24 hours
T1 construct: endogenous in cells; host or cells: HepG2
Description: as §1, with “62, 65,” for “62,”, “at” for “(50 nM, 100 nM, 200 nM, 500 nM, 1 μM and”, “μM” for “μM for dose dependent assays)”, “cocktail 1” for “cocktail”
as §2

Kinetic solubility = format: physicochemical; conditions: pH 7.4 phosphate buffer (PBS), aqueous buffer, kinetic from dmso stock, room temperature, 1.0% DMSO
Description: PBS sachet was dissolved in 0.9 L of Milli Q water and pH was adjusted to 7.4. Final volume was made up to 1 L with the water and stored at ambient temperature 21-25° C. […] 4 μL from the 50 mM stock solution were added to deep well plate containing 396 μL of pH 7.4 phosphate buffer, mixed and incubated for 24 hours at room temperature with constant mixing at 300 rpm. The plate was sealed well during the incubation process. After incubation, the samples were centrifuged for 20 min at 4000 rpm. The supernatant was analysed by HPLC-UV. The DMSO content in the sample was 1.0%. The final concentration of the compound in deep well plate was 500 μM.

ATGL [4] = assay: Fold change in ATGL by densitometric analysis; format: cell-based; conditions: fold change of ATGL with respect to control, normalized with actin
Description: Densitimetric analysis was performed by image J to calculate the fold change of ATGL with respect to control. The values were normalized with actin.

T1 sequence (Q8NHY2 whole entry): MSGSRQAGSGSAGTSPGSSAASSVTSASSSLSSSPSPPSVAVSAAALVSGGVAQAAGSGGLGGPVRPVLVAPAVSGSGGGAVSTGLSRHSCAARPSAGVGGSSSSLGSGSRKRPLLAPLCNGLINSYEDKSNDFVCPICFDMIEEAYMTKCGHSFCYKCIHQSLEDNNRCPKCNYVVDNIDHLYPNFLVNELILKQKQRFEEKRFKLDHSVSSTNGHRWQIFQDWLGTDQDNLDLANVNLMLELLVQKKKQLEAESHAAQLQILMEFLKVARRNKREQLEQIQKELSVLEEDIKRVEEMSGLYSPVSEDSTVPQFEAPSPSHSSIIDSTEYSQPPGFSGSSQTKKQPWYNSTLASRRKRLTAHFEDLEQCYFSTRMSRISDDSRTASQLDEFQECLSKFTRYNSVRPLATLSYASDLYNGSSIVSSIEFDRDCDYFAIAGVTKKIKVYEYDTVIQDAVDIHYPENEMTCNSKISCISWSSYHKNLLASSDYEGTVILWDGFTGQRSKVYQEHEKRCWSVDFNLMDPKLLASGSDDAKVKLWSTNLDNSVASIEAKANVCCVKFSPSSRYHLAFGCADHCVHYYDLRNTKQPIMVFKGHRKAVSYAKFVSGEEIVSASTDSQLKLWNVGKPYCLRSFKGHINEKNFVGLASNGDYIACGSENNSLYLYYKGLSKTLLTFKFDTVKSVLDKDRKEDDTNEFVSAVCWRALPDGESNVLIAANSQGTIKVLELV

% QH (Well stirred model) [2]	stabilization of COP1 (Western Blot) (COP1)	solubility kinetic at 24 hours (Kinetic solubility)	SMILES	ubiquitination status of ATGL (poly-Ubiquitin smear) [1]	ATGL level (Western Blot) (ATGL [3])	induction of ATGL (Western Blot) (ATGL [3])	Fold change (ATGL [4])
7.60%	stabilize the COP1	0.8 µg/mL (≈ 2.02 µM)	COCCn1c(=O)[nH]c2ccc(NC(=O)Nc3cccc(C(C)=O)c3)cc2c1=O [Compound 5, 1-(3-acetylphenyl)-3-(3-(2-methoxyethyl)-2,4-dioxo-1,2,3,4-tetrahydroquinazolin-6-yl)urea]	stark reduction in the ubiquitination smear	increased ATGL level	ability to induce ATGL	1.44
56.74%	stabilize the COP1	116 µg/mL (≈ 228 µM)	COCCn1c(=O)c2cc(NC(=O)Nc3cccc(C(C)=O)c3)ccc2n(CCN2CCCCC2)c1=O [Compound 62, 1-(3-acetylphenyl)-3-(3-(2-methoxyethyl)-2,4-dioxo-1-(2-(piperidin-1-yl)ethyl)-1,2,3,4-tetrahydroquinazolin-6-yl)urea]	stark reduction in the ubiquitination smear	increased ATGL level	ability to induce ATGL	1.55
59.60%	stabilize the COP1	89.9 µg/mL (≈ 172 µM)	COCCn1c(=O)c2cc(NC(=O)Nc3cccc(C(C)=O)c3)ccc2n(CCCN2CCOCC2)c1=O [Compound 94, 1-(3-acetylphenyl)-3-(3-(2-methoxyethyl)-1-(3-morpholinopropyl)-2,4-dioxo-1,2,3,4-tetrahydroquinazolin-6-yl)urea]	no such effect	increased ATGL level	ability to induce ATGL	0.84
